This note sets out measurements from ChEMBL document CHEMBL1129417, “Glucose transport-enhancing and hypoglycemic activity of 2-methyl-2-phenoxy-3-phenylpropanoic acids” (1996).

In test [1] the test system is Mus musculus. In words: compound was tested in vivo for hypoglycemic activity expressed as Glucose lowering relative to positive control in 6-8 week old C57BL/6J ob/ob mouse at 0.5 mg/kg. It is filed as functional.
The species named for test [2] is Rattus norvegicus. In words: Inhibition of gluconeogenesis in rat. In kind it is functional. Particulars: Rattus norvegicus; read-out: ED50.
The subject of test [3] is Mus musculus. In words: compound was tested in vivo for hypoglycemic activity expressed as Glucose lowering relative to positive control in 6-8 week old C57BL/6J ob/ob mouse at 0.1 mg/kg. In kind it is functional.
Test [4] relates to Mus musculus. Put plainly: compound was tested in vivo for hypoglycemic activity in 6-8 week old C57BL/6J ob/ob mouse at 5 mg/kg. It is filed as functional.
The subject of test [5] is 3T3-L1. In words: compound was evaluated for their acute effects in vitro by measuring 2-Deoxyglucose (2DG) uptake in vehicle treated 3T3-L1 adipocytes at concentration of 3 micro M. In kind it is functional.
The test system of test [6] is 3T3-L1. Put plainly: compound was evaluated for their acute effects in vitro by measuring 2-Deoxyglucose (2DG) uptake in vehicle treated 3T3-L1 adipocytes at concentration of 30 micro M. It is filed as functional.
For test [7], the system named is Mus musculus. Put plainly: In vivo hypoglycemic activity expressed as glucose lowering relative to positive control in 6-8 week old C57BL/6J ob/ob mouse at 1 mg/kg. In kind it is functional.
For test [8], the system named is 3T3-L1. Put plainly: In vitro measurements of 2-Deoxyglucose (2DG) uptake in vehicle treated 3T3-L1 adipocytes at 60 uM dose. In kind it is functional.
Test [9] has as its system 3T3-L1. Put plainly: compound was evaluated for their acute effects in vitro by measuring 2-Deoxyglucose (2DG) uptake in vehicle treated 3T3-L1 adipocytes at concentration of 10 micro M. It is filed as functional.
The test system of test [10] is Mus musculus. Put plainly: In vivo hypoglycemic activity expressed as glucose lowering relative to positive control in 6-8 week old C57BL/6J ob/ob mouse at 10 mg/kg. In kind it is functional.
The subject of test [11] is 3T3-L1. In words: Acute effects in vitro by measuring 2-deoxyglucose (2DG) uptake in vehicle treated 3T3-L1 adipocytes at 10 uM dose. It is filed as functional.
Test [12] deals with 3T3-L1. Put plainly: In vitro measurements 2-Deoxyglucose (2DG) uptake in vehicle treated 3T3-L1 adipocytes at 100 uM dose. In kind it is functional.
Test [13] deals with L6. Put plainly: compound was evaluated for their acute effects in vitro by measuring 2-Deoxyglucose (2DG) uptake in vehicle treated L6 […] at 100 uM dose. It is filed as functional.
Test [14] concerns 3T3-L1. Put plainly: Acute effects in vitro by measuring 2-deoxyglucose (2DG) uptake in vehicle treated 3T3-L1 adipocytes at 30 uM dose. In kind it is functional.
For test [15], the system named is Mus musculus. In words: compound was tested in vivo for hypoglycemic activity expressed as Glucose lowering relative to positive control in 6-8 week old C57BL/6J ob/ob mouse at 25 mg/kg. It is filed as functional.
The subject of test [16] is L6. Put plainly: compound was evaluated for their acute effects in vitro by measuring 2-Deoxyglucose (2DG) uptake in vehicle treated L6 […] at 60 uM dose. In kind it is functional.
Test [17] has as its system L6. In words: compound was evaluated for their acute effects in vitro by measuring 2-Deoxyglucose (2DG) uptake in vehicle treated L6 […] at 30 uM dose. In kind it is functional.
Test [18] deals with Mus musculus. Put plainly: compound was tested in vivo for hypoglycemic activity expressed as Glucose lowering relative to positive control in 6-8 week old C57BL/6J ob/ob mouse at 50 mg/kg. In kind it is functional.
Test [19] has as its system 3T3-L1. Put plainly: In vitro by measurements of 2-Deoxyglucose (2DG) uptake in vehicle treated 3T3-L1 adipocytes at 3 uM dose. It is filed as functional.
Test [20] concerns Mus musculus. In words: Compound was tested in vivo for hypoglycemic activity expressed as Glucose lowering relative to positive control in 6-8 week old C57BL/6J ob/ob mouse at 50 mg/kg. It is filed as functional.
In test [21] the test system is Mus musculus. Put plainly: In vivo hypoglycemic activity expressed as glucose lowering relative to positive control in 6-8 week old C57BL/6J ob/ob mouse at 5 mg/kg. It is filed as functional.
Test [22] concerns L6. Put plainly: Compound was evaluated for their acute effects in vitro by measuring 2-Deoxyglucose (2DG) uptake in vehicle treated L6 […] at 10 uM dose. In kind it is functional.
The species entered for test [23] is Rattus norvegicus. In words: Percentage inhibition of Glucagon stimulated Gluconeogenesis in Isolated Rat Hepatocytes in vitro. In kind it is functional, Hepatocyte.
Test [24] has as its system Mus musculus. In words: Basal glucose(mg/dl) level when compound given at 5 mg/kg/day in pair feeding study with ob/ob mice. In kind it is functional.
Test [25] concerns 3T3-L1. Put plainly: compound was evaluated for their acute effects in vitro by measuring 2-Deoxyglucose (2DG) uptake in vehicle treated 3T3-L1 adipocytes at 1 uM dose. In kind it is functional.
The species named for test [26] is Rattus norvegicus. In words: Percentage inhibition of basal stimulated Gluconeogenesis in Isolated Rat Hepatocytes in vitro. It is filed as functional, Hepatocyte.
For test [27], the system named is Mus musculus. In words: compound was tested in vivo for hypoglycemic activity expressed as Glucose lowering relative to positive control in 6-8 week old C57BL/6J ob/ob mouse at 20 mg/kg. It is filed as functional.
The subject of test [28] is L6. In words: Compound was evaluated for their acute effects in vitro by measuring 2-Deoxyglucose (2DG) uptake in vehicle treated L6 […] at 1 uM dose. It is filed as functional.
Test [29] has as its system L6. In words: Compound was evaluated for their acute effects in vitro by measuring 2-Deoxyglucose (2DG) uptake in vehicle treated L6 […] at 3 uM dose. It is filed as functional.
For test [30], the system named is Mus musculus. Put plainly: Glucose(mg/dl) level, on day 5 when compound given at 5 mg/kg/day in pair feeding study with ob/ob mice. It is filed as functional.
Test [31] concerns L6. In words: Compound was evaluated for their acute effects in vitro by measuring 2-Deoxyglucose (2DG) uptake in vehicle treated L6 […] at 100 uM dose. In kind it is functional.
The test system of test [32] is L6. Put plainly: Compound was evaluated for their acute effects in vitro by measuring 2-Deoxyglucose (2DG) uptake in vehicle treated L6 […] at 30 uM dose. It is filed as functional.
The subject of test [33] is L6. In words: Compound was evaluated for their acute effects in vitro by measuring 2-Deoxyglucose (2DG) uptake in vehicle treated L6 […] at 60 uM dose. In kind it is functional.
Test [34] has as its system Mus musculus. Put plainly: Food intake (g/5 mice/ 5 days) when compound given at 5 mg/kg/day in pair feeding study with ob/ob mice. It is filed as functional.
Test [35] has as its system 3T3-L1. Put plainly: compound was evaluated for their acute effects in vitro by measuring 2-Deoxyglucose (2DG) uptake in vehicle treated 3T3-L1 adipocytes at 0.3 uM dose. In kind it is functional.
In test [36] the test system is Mus musculus. In words: Net body weight delta (g)when compound given at 5 mg/kg/day in pair feeding study with ob/ob mice. It is filed as functional.
The subject of test [37] is Mus musculus. Put plainly: compound was tested in vivo for hypoglycemic activity in 6-8 week old C57BL/6J ob/ob mouse at 0.5 mg/kg. In kind it is functional.
Test [38] deals with 3T3-L1. Put plainly: compound was evaluated for their acute effects in vitro by measuring 2-Deoxyglucose (2DG) uptake in vehicle treated 3T3-L1 adipocytes at 300 uM dose. In kind it is functional.
The test system of test [39] is L6. Put plainly: compound was evaluated for their acute effects in vitro by measuring 2-Deoxyglucose (2DG) uptake in vehicle treated L6 […] at 10 uM dose. In kind it is functional.
For test [40], the system named is L6. In words: compound was evaluated for their acute effects in vitro by measuring 2-Deoxyglucose (2DG) uptake in vehicle treated L6 […] at 3 uM dose. In kind it is functional.

A word on the ED50: it is the dose that gives a 50% effect, or the effect in half of the subjects. `CCc1ccc(CC(C)(Oc2ccc(C(C)C)cc2)C(=O)[O-])cc1.[Na+]` (centres undefined): the Hypoglycemic activity with Mus musculus [1] is 76%; with Mus musculus [3] it was 55%; with Mus musculus [7] it was 86%; with Mus musculus [10] it was 119%. Further, in the test filed under Rattus norvegicus [2], the ED50 came to 0.1 mg/kg. Moreover, the “Glucose lowering relative to positive control” value in the test on Mus musculus [4] amounted to 109%. For the same molecule, the Basal uptake in the test on 3T3-L1 [5] came out at 94%; in the test with 3T3-L1 [6], 216%; in the test with 3T3-L1 [8] it was 109%; in the test with 3T3-L1 [9] it was 108%.
On to `Cc1ccc(S(=O)(=O)C(CCCCCc2ccc(Cl)cc2)C(=O)O)cc1` (centres undefined), for which the Basal uptake is 93% with 3T3-L1 [11]; 250% in the test with 3T3-L1 [12]; 134% in the test with L6 [13]; 100% with 3T3-L1 [14]; 124% in the test on L6 [16]; 88% in the test on L6 [17]. Moreover, the Basal uptake with 3T3-L1 [19] is 114%. Also, the ED50 in the test listed under Rattus norvegicus [2] amounted to 25 mg/kg. The Hypoglycemic activity in the test with Mus musculus [15] is listed as 60%; in the test with Mus musculus [18] it was 71%; in the test with Mus musculus [10] it was 22%.
For the molecule `CC(C)c1ccc(OC(Cc2ccc(C(F)(F)F)cc2)C(=O)O)cc1` (centres undefined), the Basal uptake in the test with 3T3-L1 [12] is on record as 605%; in the test with L6 [16] it was 104%. In addition, the Hypoglycemic activity is recorded as 74% in the test with Mus musculus [20], 30% with Mus musculus [21] and 42% in the test with Mus musculus [10]. Further, the ED50 in the test listed under Rattus norvegicus [2] is 10 mg/kg.
As a reminder, the Inhibition is the share of the control response that was lost under treatment. Higher therefore signals a response far below the control. As for `CC(C)c1ccc(OC(C)(Cc2ccc(Cl)cc2)C(=O)O)cc1` (stereo in doubt; 26), the Basal uptake in the test with 3T3-L1 [11] is listed as 94%; with 3T3-L1 [12], 220%; in the test on L6 [22] it was 96%; in the test with 3T3-L1 [25], 86%; in the test with L6 [28], 101%; in the test on 3T3-L1 [14], 100%. Moreover, the Basal uptake was found to be 97% in the test on L6 [29]; 88% with L6 [31]; 87% in the test on L6 [32]; 139% in the test with 3T3-L1 [5]; 108% with L6 [33]; 291% in the test on 3T3-L1 [6]. The Basal uptake came to 110% with 3T3-L1 [8], 200% with 3T3-L1 [9], 106% with 3T3-L1 [35] and 98% in the test on 3T3-L1 [19]. Further, the Inhibition in the test listed under Rattus norvegicus [23] was 22%; in the test filed under Rattus norvegicus [26], 36%. In the test on Mus musculus [24], the Basal glucose amounted to 341 mg/dL. The ED50 in the test listed under Rattus norvegicus [2] turned out to be 1 mg/kg. The Hypoglycemic activity is on record as 104% in the test with Mus musculus [27]; 90% in the test on Mus musculus [15]; 83% in the test with Mus musculus [18]; 50% with Mus musculus [7] (1 mg/kg); 77% in the test on Mus musculus [21] (5 mg/kg); 111% with Mus musculus [10]. Besides, the Glucose in the test on Mus musculus [30] was determined as 223 mg/dL. The molecule further yielded a Food intake with Mus musculus [34] of 132 g 5mice-1 5days-1. Also, the “Net body weight delta” value in the test with Mus musculus [36] is 0.4 g.
Turning to `CCc1cccc(CC(C)(Oc2ccc(C(C)C)cc2)C(=O)[O-])c1.[Na+]` (centres undefined), the Basal uptake is given as 127% in the test with 3T3-L1 [11]; 131% in the test on 3T3-L1 [5]; 246% with 3T3-L1 [6]; 194% with 3T3-L1 [9]; 102% in the test on 3T3-L1 [19]; 117% in the test with 3T3-L1 [38]. Further, the ED50 in the test listed under Rattus norvegicus [2] worked out at 0.5 mg/kg. Besides, the Hypoglycemic activity was found to be 76% in the test with Mus musculus [7], 101% in the test on Mus musculus [21] and 147% with Mus musculus [10]. The same molecule yielded a Hypoglycemic in the test with Mus musculus [37] of less than 0.
For `CC(C)c1ccc(OC(C)(Cc2cccc(C(F)(F)F)c2)C(=O)[O-])cc1.[Na+]` (centres undefined), in the test filed under Rattus norvegicus [2], the ED50 turned out to be 5 mg/kg. Moreover, the Basal uptake is 121% with L6 [17], 104% in the test on L6 [39] and 129% with L6 [40]. The Hypoglycemic activity in the test with Mus musculus [7] is listed as 44%; in the test on Mus musculus [21], 46%; in the test on Mus musculus [10], 64%.
